Measurements published in PubChem BioAssay (NCI).
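Five concentrations, 48 hours, 96-well plates. Abbreviation: GI50, concentration required for 50% inhibition of growth. TGI: concentration producing complete growth inhibition.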

Tests used:
Assay in all cases: NCI tumour cell line growth inhibition, 48 h
[1] = tested on: CCRF-CEM leukemia
[2] = tested on: HCT-116 colon
[3] = tested on: HCT-15 colon
[4] = tested on: HOP-62 NSCLC
[5] = tested on: HT29 colon
[6] = tested on: NCI-H460 lung
[7] = tested on: OVCAR-8 ovarian
[8] = tested on: SR leukemia
[9] = tested on: TK-10 renal
[10] = tested on: SK-OV-3 ovarian

| Compound | TGI [1] [µM] | TGI [2] [µM] | TGI [3] [µM] | TGI [4] [µM] | TGI [5] [µM] | TGI [6] [µM] | TGI [7] [µM] | TGI [8] [µM] | TGI [9] [µM] | TGI [10] [µM] | GI50 [1] [µM] | GI50 [2] [µM] | GI50 [3] [µM] | GI50 [4] [µM] | GI50 [5] [µM] | GI50 [6] [µM] | GI50 [7] [µM] | GI50 [10] [µM] | GI50 [8] [µM] | GI50 [9] [µM] |
| --- | --- | --- | --- | --- | --- | --- | --- | --- | --- | --- | --- | --- | --- | --- | --- | --- | --- | --- | --- | --- |
| CCOP(=O)(Nc1ccc2oc(=O)c3ccccc3c2c1)OCC | > 100 | > 100 | > 100 | > 100 | > 100 | > 100 | > 100 | > 100 | > 100 | – | – | – | – | – | – | – | – | – | – | – |
| COc1cc2cc3c4c(cc(OC)c(OC)c4c2cc1OC)CCN3C(=O)CCC(=O)NCCCN(C)C | 88.2 | > 100 | > 100 | > 100 | 51.7 | > 100 | > 100 | 62 | > 100 | > 100 | – | – | – | – | – | – | – | – | – | – |
| Cc1nc(N)nc2ccccc12 | > 100 | > 100 | > 100 | > 100 | > 100 | > 100 | > 100 | > 100 | > 100 | > 100 | – | – | – | – | – | – | – | – | – | – |
| CNC(=O)CN(CC(N)=O)C(N)=O | > 100 | – | > 100 | > 100 | > 100 | > 100 | > 100 | > 100 | > 100 | > 100 | – | – | – | – | – | – | – | – | – | – |
| Cc1cc(Cl)ccc1NS(=O)(=O)c1ccc(-c2cnc(C3CC3)o2)cc1 | 38.3 | 11.9 | 12.2 | 21.5 | 11.8 | 12.4 | 15.2 | 28.4 | 31.1 | 26.2 | 0.239 | 0.3 | 0.0908 | 0.556 | 0.267 | 0.37 | 0.427 | 4.32 | 0.0967 | 11.8 |
| Oc1[nH]c2cc(Cl)ccc2c1/C=c1/ccc2c(c1)N=C(c1cc(F)cc(F)c1)N=2 | 3.47 | 3.17 | 14.7 | 8.44 | 5.94 | 6.77 | 10.3 | 8.53 | 18.8 | 7.95 | 0.657 | 1.17 | 3.37 | 1.35 | 1.72 | 1.64 | 2.92 | 2.38 | 2.22 | 5.53 |
| COc1nc(NC2OC(COC(C)=O)C(OC(C)=O)C(OC(C)=O)C2OC(C)=O)c(-c2csc(N)n2)c(=O)n1C (centres undefined) | > 100 | > 100 | > 100 | > 100 | > 100 | > 100 | > 100 | > 100 | > 100 | > 100 | – | – | – | – | – | – | – | – | – | – |
| CC1CC[C@]2(C(=O)O)CCC3(C)C(=CCC4[C@@]5(C)CC[C@H](OS(=O)(=O)c6ccccc6)C(C)(C)C5CC[C@]43C)[C@@H]2[C@H]1C (some centres undefined) | > 100 | > 100 | – | > 100 | > 100 | > 100 | > 100 | > 100 | > 100 | > 100 | – | – | – | – | – | – | – | – | – | – |
| CC(=O)Oc1ccc2c(c1)CC[C@@H]1C2CC[C@]2(C)C(=O)NC(=O)CC12 (some centres undefined) | > 100 | > 100 | – | > 100 | > 100 | > 100 | > 100 | > 100 | > 100 | > 100 | – | – | – | – | – | – | – | – | – | – |
| Cc1cc(C(O)CN(C)C)cc2c1ccc1cc(C(C)C)ccc12 (centres undefined) | 5.65 | 3.29 | 3.61 | 3.08 | 3.62 | 3.43 | – | 5.21 | 3.36 | 20 | 2.48 | 1.8 | 1.81 | 1.59 | 1.56 | 1.74 | – | 4.58 | 1.96 | 1.77 |
| COc1cccc(/C=C/C(=O)c2cc3c(N)c(C(=O)Nc4cccc5ccccc45)sc3nc2C)c1 | > 50 | 1.6 | 1.86 | 3.21 | 2.06 | 3.45 | 4.08 | > 50 | > 50 | > 50 | 0.256 | 0.619 | 0.624 | 1.14 | 0.65 | 1.22 | 1.23 | 2.24 | 0.296 | 1.78 |
| O=C1c2ccccc2C(=O)c2nc3ccc(Cl)cc3cc21 | > 100 | > 100 | > 100 | > 100 | > 100 | > 100 | > 100 | > 100 | > 100 | > 100 | – | – | – | – | – | – | – | – | – | – |
| Oc1ccc(Cl)cc1Cc1cc(Cl)ccc1O | 9.79 | 7.08 | 12.3 | 7.56 | 10.6 | 10.7 | 8.97 | 35.8 | 11.3 | 10.9 | 2.43 | 2.6 | 3.26 | 2.39 | 3.55 | 3 | 2.63 | 2.81 | 4.45 | 3.65 |
| CC1(C)OC2C(COS(N)(=O)=O)SC(n3cnc4cncnc43)C2O1 (centres undefined) | > 100 | > 100 | > 100 | > 100 | > 100 | > 100 | > 100 | > 100 | > 100 | > 100 | > 100 | > 100 | > 100 | > 100 | > 100 | > 100 | > 100 | > 100 | > 100 | > 100 |
| COc1ccc(OC)c2c3c(ccc12)C(c1ccccc1)OC3=O (centres undefined) | > 100 | > 100 | > 100 | > 100 | > 100 | > 100 | > 100 | > 100 | > 100 | > 100 | – | – | – | – | – | – | – | – | – | – |
| CC1CCC2N(C1)CC1C3(O)CC45OC6(O)C(O)CCC4(C)C6CCC5C3(O)CC(O)C1(O)C2(C)O (centres undefined) | > 100 | > 100 | > 100 | > 100 | > 100 | > 100 | > 100 | > 100 | > 100 | > 100 | – | – | – | – | – | – | – | – | – | – |
